Assay results from ChEMBL document CHEMBL3390848, “Affinity selection and sequence-activity relationships of HIV-1 membrane fusion inhibitors directed at the drug-resistant variants” (Medchemcomm, 2010).
Residues, ends and D or L forms follow the SMILES beside them.

Experiments:
[1] = test system: Human immunodeficiency virus 1; experiment: Binding affinity to HIV1 His-tagged N-terminal heptad repeat of envelope glycoprotein gp41 assessed as recovery of N36-drug complex at 1 uM after 2 hrs by LC-MS analysis
[2] = test system: Human immunodeficiency virus 1; experiment: Binding affinity to HIV1 His-tagged N-terminal heptad repeat of envelope glycoprotein gp41 assessed as recovery of N36-drug complex at 0.6 uM after 2 hrs by LC-MS analysis
[3] = test system: Envelope glycoprotein gp160 (Human immunodeficiency virus 1), Q72502 [V38A]; experiment: Binding affinity to HIV1 His-tagged N-terminal heptad repeat of envelope glycoprotein gp41 assessed as recovery of N36 V38A mutant-drug complex after 2 hrs by LC-MS analysis; set-up: concentration or dose not given beside the values
[4] = test system: Human immunodeficiency virus 1; experiment: Binding affinity to HIV1 His-tagged N-terminal heptad repeat of envelope glycoprotein gp41 assessed as recovery of N36 N43D mutant-drug complex after 2 hrs by LC-MS analysis; set-up: concentration or dose not given beside the values
[5] = test system: Envelope glycoprotein gp160 (Human immunodeficiency virus 1), Q72502 [V38A]; experiment: Thermal stability of HIV1 envelope glycoprotein gp41 His-tagged N-terminal heptad repeat N36 V38A mutant-drug complex assessed as thermal unfolding transition state by measuring molar ellipticity at 4 to 90 degC by circular dichroic spectra analysis
[6] = test system: Human immunodeficiency virus 1; experiment: Thermal stability of HIV1 envelope glycoprotein gp41 His-tagged N-terminal heptad repeat N36 N43D mutant-drug complex assessed as thermal unfolding transition state by measuring molar ellipticity at 4 to 90 degC by circular dichroic spectra analysis
[7] = test system: Human immunodeficiency virus 1; experiment: Thermal stability of HIV1 envelope glycoprotein gp41 His-tagged N-terminal heptad repeat N36-drug complex assessed as thermal unfolding transition state by measuring molar ellipticity at 4 to 90 degC by circular dichroic spectra analysis
[8] = test system: Human immunodeficiency virus 1; experiment: Binding affinity to HIV1 His-tagged N-terminal heptad repeat of envelope glycoprotein gp41 assessed as recovery of N36-drug complex at 10 uM after 2 hrs by LC-MS analysis
[9] = test system: Human immunodeficiency virus 1; experiment: Antiviral activity against HIV1 NL4-3 harboring gp41 D36G mutant infected in human HeLa cells expressing CD4-LTR-beta-gal assessed as inhibition of viral replication after 48 hrs by MAGI assay; format: functional, organism-based
[10] = test system: Human immunodeficiency virus 1; experiment: Binding affinity to HIV1 His-tagged N-terminal heptad repeat of envelope glycoprotein gp41 assessed as recovery of N36-drug complex at 6 uM after 2 hrs by LC-MS analysis

Row | Structure (SMILES) | Activity [1] [%] | Activity [2] [%] | Activity [3] [%] | Activity [4] [%] | Tm [5] [°C] | Tm [6] [°C] | Tm [7] [°C] | Activity [8] [%] | EC50 [9] [pM] | Activity [10] [%]
1 | CC[C@H](C)[C@H](NC(=O)[C@H](CC(C)C)NC(=O)[C@H](CCC(=O)O)NC(=O)[C@H](CCC(=O)O)NC(=O)[C@@H](NC(=O)[C@H](CCCCN)NC(=O)[C@H](CCCCN)NC(=O)[C@@H](NC(=O)[C@H](Cc1ccc(O)cc1)NC(=O)[C@H](CCC(=O)O)NC(=O)[C@H](CCC(=O)O)NC(=O)[C@@H](NC(=O)[C@H](CCCCN)NC(=O)[C@H](CCCCN)NC(=O)[C@H](CC(=O)O)NC(=O)[C@H](Cc1c[nH]c2ccccc12)NC(=O)[C@H](CCC(=O)O)NC(=O)[C@H](CCC(=O)O)NC(=O)[C@H](Cc1c[nH]c2ccccc12)NC(C)=O)[C@@H](C)CC)[C@@H](C)O)[C@@H](C)CC)C(=O)N[C@@H](CCCCN)C(=O)N[C@@H](CCCCN)C(=O)N[C@@H](C)C(=O)N[C@@H](CCC(=O)O)C(=O)N[C@@H](CCC(=O)O)C(=O)N[C@@H](CCC(N)=O)C(=O)N[C@@H](CCC(N)=O)C(=O)N[C@@H](CCCCN)C(=O)N[C@@H](CCCCN)C(=O)N[C@@H](CC(N)=O)C(=O)N[C@@H](CCC(=O)O)C(=O)N[C@@H](CCC(=O)O)C(=O)N[C@@H](CCC(=O)O)C(=O)N[C@@H](CC(C)C)C(=O)N[C@@H](CCCCN)C(=O)N[C@@H](CCCCN)C(N)=O (Ac-WEEWDKKIEEYTKKIEELIKKAEEQQKKNEEELKK-NH2) | 11.5 | 5.3 | 11.4 | 12.9 | 76.1 | 74.4 | 86.4 | 30.7 | 200 | 22.5
2 | CC[C@H](C)[C@H](NC(=O)[C@H](CC(C)C)NC(=O)[C@H](CCC(=O)O)NC(=O)[C@H](CCC(=O)O)NC(=O)[C@@H](NC(=O)[C@H](CCCCN)NC(=O)[C@H](CCCCN)NC(=O)[C@@H](NC(=O)[C@H](Cc1ccc(O)cc1)NC(=O)[C@H](CCC(=O)O)NC(=O)[C@H](CCC(=O)O)NC(=O)[C@@H](NC(=O)[C@H](CCCCN)NC(=O)[C@H](CCCCN)NC(=O)[C@H](CC(=O)O)NC(=O)[C@H](Cc1c[nH]c2ccccc12)NC(=O)[C@H](CCC(=O)O)NC(=O)[C@H](CCC(=O)O)NC(=O)[C@H](Cc1c[nH]c2ccccc12)NC(C)=O)[C@@H](C)CC)[C@@H](C)O)[C@@H](C)CC)C(=O)N[C@@H](CCCCN)C(=O)N[C@@H](CCCCN)C(=O)N[C@@H](CC(C)C)C(=O)N[C@@H](CCC(=O)O)C(=O)N[C@@H](CCC(=O)O)C(=O)N[C@@H](CCC(N)=O)C(=O)N[C@@H](CCC(N)=O)C(=O)N[C@@H](CCCCN)C(=O)N[C@@H](CCCCN)C(=O)N[C@@H](CC(N)=O)C(=O)N[C@@H](CCC(=O)O)C(=O)N[C@@H](CCC(=O)O)C(=O)N[C@@H](CCC(=O)O)C(=O)N[C@@H](CC(C)C)C(=O)N[C@@H](CCCCN)C(=O)N[C@@H](CCCCN)C(N)=O (Ac-WEEWDKKIEEYTKKIEELIKKLEEQQKKNEEELKK-NH2) | 11.3 | 6.9 | 10.3 | 12.9 | 75 | 80 | 83.2 | 4.7 | 200 | 7.6
